Measured values published in patent publication US8445504B2, “Tricyclic pyrazolopyrimidine derivatives” (Daiichi Sankyo Company, Limited, priority 2009, dated 2013).

Experiments:
[1] = molecular target: T1, recombinant yeast Hsp90 protein (rHsp90) (Saccharomyces cerevisiae, UniProt P02829); assay: Hsp90 ATPase assay; format: biochemical; conditions: at a concentration of 2 μM; 100 μM ATP, 37° C., two hours; read-out: ATPase inhibitory activity
T1 construct: made in house; host or cells: Escherichia coli
T1 sequence (P02829 whole entry): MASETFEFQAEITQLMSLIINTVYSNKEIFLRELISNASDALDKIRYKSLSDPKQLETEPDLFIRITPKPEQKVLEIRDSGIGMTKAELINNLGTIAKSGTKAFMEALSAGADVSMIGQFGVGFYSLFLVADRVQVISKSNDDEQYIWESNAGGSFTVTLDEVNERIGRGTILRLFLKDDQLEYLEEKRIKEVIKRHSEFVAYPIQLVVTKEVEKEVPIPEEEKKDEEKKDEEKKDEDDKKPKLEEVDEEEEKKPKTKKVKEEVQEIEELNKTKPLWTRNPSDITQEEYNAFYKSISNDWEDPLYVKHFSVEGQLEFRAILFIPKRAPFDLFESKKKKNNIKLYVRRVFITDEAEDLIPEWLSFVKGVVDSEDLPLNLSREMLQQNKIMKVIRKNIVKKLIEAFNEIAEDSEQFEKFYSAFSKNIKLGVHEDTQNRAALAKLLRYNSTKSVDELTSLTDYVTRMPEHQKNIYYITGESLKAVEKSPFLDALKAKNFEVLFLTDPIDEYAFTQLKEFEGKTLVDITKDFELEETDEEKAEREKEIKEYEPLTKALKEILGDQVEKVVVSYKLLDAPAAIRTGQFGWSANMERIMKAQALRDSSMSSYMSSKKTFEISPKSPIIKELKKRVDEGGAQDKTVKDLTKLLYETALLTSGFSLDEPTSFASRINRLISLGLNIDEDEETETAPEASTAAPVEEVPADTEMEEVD
Experimental: An Hsp90 ATPase assay was performed using a recombinant yeast Hsp90 protein (hereinafter called rHsp90). Yeast Hsp90 DNA was cloned from a yeast genomic DNA library according to a conventional method. The cloned yeast Hsp90 DNA was incorporated into a plasmid for expression in Escherichia coli, and the plasmid was expressed in Escherichia coli to obtain rHsp90.
The test compound was dissolved in DMSO to 10 mM. The dissolved solution was diluted with DMSO to two concentrations, 1 mM and 0.2 mM. Each diluted solution was further 10-fold diluted with an assay buffer (100 mM Tris, pH 7.4, 20 mM KCl, 6 mM MgCl2) (concentration of each test compound solution: 100 μM and 20 μM; DMSO concentration: 10%).
rHsp90 was dissolved in a TE buffer (20 mM Tris, pH 7.4, 1 mM EDTA) to a concentration of 2.531 mg/mL. The solution was diluted with an assay buffer to 125 μg/mL and dispensed to a 96-well assay plate at 40 μL per well (final concentration: 100 μg/mL).
The test compound solution was dispensed at 5 μL per well, and then the solutions in the respective wells were mixed using a plate mixer. 100 mM ATP (Sigma, Catalog No. A-7699) was diluted with an assay buffer to 1 mM and dispensed at 5 μL per well (final concentration: 100 μM). The solutions in the respective wells were mixed using a plate mixer, and then the assay plate was allowed to stand in an incubator set at 37° C. for two hours.
BIOMOL GREEN Reagent (BIOMOL, Catalog No. AK-111) was dispensed at 100 μL per well, and the reaction was terminated. The solutions in the respective wells were mixed using a plate mixer, and then 34% sodium citrate was dispensed at 10 μL per well. The solutions in the respective wells were mixed using a plate mixer, and then the assay plate was left to stand at room temperature for 30 minutes. The absorbance at 650 nm of each well was measured using SpectramaxPLUS (Molecular Devices).
The ratio of the absorbance of the test compound-added group to the absorbance of the test compound-free group (T/C value) was determined by the following calculation formula, based on the assumption that the absorbance of the well to which the test compound and rHsp90 were added was A, the absorbance of the well to which only rHsp90 was added was B, and the absorbance of the well to which neither the test compound nor rHsp90 was added was C. The calculation was carried out using Softmax Pro 4.6 (Molecular Devices). Furthermore, an inhibition rate (%) was calculated using the following calculation formula: T/C=(A−C)/(B−C)

[2] = system: human breast cancer cell line SK-BR-3; assay: Cell growth inhibition assay (MTT), SK-BR-3; format: cell-based; conditions: SK-BR-3, 72 hours
Experimental: (§1) A cell growth inhibition assay was performed using two types of cells (human breast cancer cell line SK-BR-3 and human lung cancer cell line NCI-H460).
(§2) Cells of each type were suspended in a medium and seeded into a 96-well multi-well plate at 2000 cells/150 μL/well in the case of SK-BR-3 and at 500 cells/150 μL/well in the case of NCI-H460. The test compound was dissolved in DMSO, and this was diluted with medium to prepare a sample solution (DMSO concentration: 0.5% or less). On the day following the seeding, 50 μL of DMSO-containing medium to which the test compound was not added (hereinafter called DMSO diluted solution; DMSO concentration: 0.5% or less) or 50 μL of the sample solution was further added to the cells. An MTT assay was performed immediately after and 72 hours after adding the sample solution or the DMSO diluted solution to the cells. The MTT assay was performed as follows.
(§3) 5 mg/mL of an MTT (3-(4,5-dimethylthiazol-2-yl)-2,5-diphenyltetrazolium bromide) solution was added at 20 μL per well. Thereafter, the plate was incubated at 37° C. in 5% CO2 for four hours. The plate was centrifuged at 1200 rpm for five minutes, and then the culture supernatant was removed by suction using a dispenser. DMSO was added at 150 μL per well, and the generated formazan was dissolved. The plate was stirred using a plate mixer to uniformly color the respective wells. The absorbance of each well was measured using a plate reader at an OD of 540 nm with a reference of 660 nm.
(§4) T/C (%) for each concentration was determined by the following calculation formula and a dose-response curve was drawn to calculate the 50% growth inhibitory concentration (GI50 value), based on the assumption that the OD value measured immediately after adding the sample solution was S, the OD value measured 72 hours after adding the sample solution was T, and the OD value measured 72 hours after adding the DMSO diluted solution was C. T/C (%)=(T−S)/(C−S)×100 The results are shown below.

[3] = system: human lung cancer cell line NCI-H460; assay: Cell growth inhibition assay (MTT), NCI-H460; format: cell-based; conditions: NCI-H460, 72 hours
Experimental: as §1, §2, §3, §4

[4] = molecular target: CYP3A4 (Homo sapiens, UniProt P08684); assay: in vitro; conditions: microsomes, pH 7.4
Chain of CYP3A4 (P08684 whole entry): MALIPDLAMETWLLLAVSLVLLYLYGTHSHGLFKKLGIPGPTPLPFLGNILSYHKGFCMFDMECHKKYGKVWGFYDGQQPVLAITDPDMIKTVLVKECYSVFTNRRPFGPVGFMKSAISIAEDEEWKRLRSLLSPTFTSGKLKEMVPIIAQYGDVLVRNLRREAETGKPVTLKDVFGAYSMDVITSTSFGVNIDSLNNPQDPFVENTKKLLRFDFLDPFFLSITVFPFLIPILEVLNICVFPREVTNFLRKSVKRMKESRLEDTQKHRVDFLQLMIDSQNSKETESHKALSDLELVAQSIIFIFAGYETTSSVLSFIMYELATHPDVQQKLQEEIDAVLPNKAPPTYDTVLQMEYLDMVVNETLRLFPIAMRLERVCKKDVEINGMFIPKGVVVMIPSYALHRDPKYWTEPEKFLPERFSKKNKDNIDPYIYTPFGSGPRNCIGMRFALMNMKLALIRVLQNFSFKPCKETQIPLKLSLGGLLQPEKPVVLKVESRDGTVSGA
Experimental: Appropriate amounts of such test compound, substrate, target to be measured, and positive control were weighed. They were dissolved in DMSO, and were then diluted with acetonitrile, as appropriate.
180 μl of a reaction solution prepared by mixing the following (1) to (5) had previously been warmed at 37° C. for 10 minutes:
(1) Potassium phosphate buffer (pH 7.4; final concentration: 50 mM)
(3) Midazolam (final concentration: 2.5 μM)
(5) Human hepatic microsome (final concentration: 0.05 mg-P/ml)
20 μl of the NADPH Regeneration System (solution A/solution B/purified water=5/1/4) was added to this reaction solution, and the reaction was initiated. The mixture was incubated for 10 minutes. Thereafter, 50 μl of the reaction solution was sampled, and it was then added to 200 μl of acetonitrile, followed by the termination of the reaction. Further, 50 μl of an acetonitrile solution containing an internal standard substance was added to the reaction solution.
In order to remove proteins from this sample, the reaction solution was transferred to a 96-Well Collection Plate (Waters) using Captiva (registered trademark) (GL Sciences). This sample solution was defined as a sample used for the assay of LC-MS/MS.
Samples of 1′-Hydroxymidazolam having known concentrations (final concentrations: 0 to 5 μM; total 5 points) were prepared, separately. A calibration curve used for assay was prepared, and the concentration of 1′-Hydroxymidazolam in the sample was assayed. This reaction was carried out in a duplicated manner.
The amount of 1′-Hydroxymidazolam generated in the negative control was defined as 100%, and the ratio of the amount of this compound generated by addition of each compound was then calculated. Thus, the inhibition value of CYP3A4 was obtained.

Row | SMILES | inhibition at 2 µM [1] [%] | GI50 [2] [nM] | GI50 [3] [nM] | inhibition at 10 min, 10 μM [4] [%]
1 | CNC(=O)CC1=Cc2nn(Cc3ncc(C)c(OC)c3Cl)c3nc(N)nc(c23)SC1 [Compound 1, 2-{4-Amino-2-[(3-chloro-4-methoxy-5-methylpyridin-2-yl)methyl]-2,7-dihydro-6-thia-1,2,3,5-tetraazabenzo[cd]azulen-8-yl}-N-methylacetamide] | ≥ 50 | 13 | 26 | 15
2 | CNC(=O)CC1=Cc2nn(Cc3ncc(F)c(OC)c3C)c3nc(N)nc(c23)SC1 [Compound 2, 2-{4-Amino-2-[(5-fluoro-4-methoxy-3-methylpyridin-2-yl)methyl]-2,7-dihydro-6-thia-1,2,3,5-tetraazabenzo-[cd]azulen-8-yl}-N-methylacetamide] | ≥ 50 | 39 | 90 | 58
3 | CNC(=O)CC1=Cc2nn(Cc3ncc(C)c(OC)c3Br)c3nc(N)nc(c23)SC1 [Compound 3, 2-{4-Amino-2-[(3-bromo-4-methoxy-5-methylpyridin-2-yl)methyl]-2,7-dihydro-6-thia-1,2,3,5-tetraazabenzo[cd]azulen-8-yl}-N-methylacetamide] | ≥ 50 | 14 | 30 | 5
4 | COc1c(C)cnc(Cn2nc3c4c(nc(N)nc42)SCC(CC(N)=O)=C3)c1Br [Compound 4, 2-{4-Amino-2-[(3-bromo-4-methoxy-5-methylpyridin-2-yl)methyl]-2,7-dihydro-6-thia-1,2,3,5-tetraazabenzo[cd]azulen-8-yl}acetamide mesilate] | ≥ 50 | 11 | 22 | 43
5 | COc1c(C)cnc(Cn2nc3c4c(nc(N)nc42)SCC(CC(=O)NCCF)=C3)c1Cl [Compound 5, 2-{4-Amino-2-[(3-chloro-4-methoxy-5-methylpyridin-2-yl)methyl]-2,7-dihydro-6-thia-1,2,3,5-tetraazabenzo[cd]azulen-8-yl}-N-(2-fluoroethyl)acetamide] | ≥ 50 | 16 | 36 | 66
6 | COc1ccnc(Cn2nc3c4c(nc(N)nc42)SCC(C(=O)NCC(F)F)=C3)c1Cl [Compound 6, 4-Amino-2-[(3-chloro-4-methoxypyridin-2-yl)methyl]-N-(2,2-difluoroethyl)-2,7-dihydro-6-thia-1,2,3,5-tetraazabenzo[cd]azulen-8-carboxamide] | ≥ 50 | 45 | 110 | -18
